Values after ≈ are worked out from the molar mass of the structure shown.
System: SAUR 9218
Test: MIC Test Method, standard agar dilution
Format: cell-based
Conditions: agar dilution, Mueller Hinton agar, incubated overnight at 35° C.; lowest concentration that inhibits visible growth; read-out: SAUR 9218 MIC
Protocol: The in vitro MiCs of test compounds were determined by a standard agar dilution method. A stock drug solution of each analog was prepared in the preferred solvent, usually DMSO:H2O (1:3). Serial 2-fold dilutions of each sample are made using 1.0 ml aliquots of sterile distil]ed water. To each 1.0 ml aliquot of drug was added 9 ml of molten Mueller Hinton agar medium. The drug-supplemented agar was mixed, poured into 15×100 mm petri dishes, and allowed to solidify and dry prior to inoculation.
Vials of each of the test organisms are maintained frozen in the vapor phase of a liquid nitrogen freezer. Test cultures are grown overnight at 35° C. on the medium appropriate for the organism. Colonies are harvested with a sterile swab, and cell suspensions are prepared in Trypticase Soy broth (TSB) to equal the turbidity of a 0.5 McFamland standard. A 1:20 dilution of each suspension was made in TSB. The plates containing the drug supplemented agar are inoculated with a 0.001 ml drop of the cell suspension using a Steers replicator, yielding approximately 10^4 to 10^5 cells per spot. The plates are incubated overnight at 35° C.
Following incubation the Minimum Inhibitory Concentration (MIC μg/ml), the lowest concentration of drug that inhibits visible growth of the organism, was read and recorded.

CN(c1ccc(Cl)cc1)S(=O)(=O)c1cc(C(=O)Nc2ccc(Br)cc2C(=O)O)cs1 [drawing 1603]
MIC: 4 µg/mL (≈ 7.55 µM)

CC(=O)Nc1cccc2cc(C(=O)Nc3ccc(C#N)cc3C(=O)O)[nH]c12
MIC: 2 µg/mL (≈ 5.52 µM)

Cn1nc(C(=O)Nc2ccc(Br)cc2C(=O)O)cc1OCc1ccccc1
MIC: 16 µg/mL (≈ 37.2 µM)

Cc1ccccc1-c1ccc2onc(C(=O)Nc3ccc(C#N)cc3C(=O)O)c2c1
MIC: 0.125 µg/mL (≈ 0.315 µM)

N#Cc1ccc(NC(=O)c2ccc(SCCCCCO)nn2)c(C(=O)O)c1
MIC: 0.06 µg/mL (≈ 0.155 µM)

N#Cc1ccc(NC(=O)c2ncc(-c3ccccc3C(F)(F)F)o2)c(C(=O)O)c1
MIC: 1 µg/mL (≈ 2.49 µM)

Cc1ccccc1-c1ccc2c(C(=O)Nc3ccc(C#N)cc3C(=O)O)noc2c1
MIC: 0.06 µg/mL (≈ 0.151 µM)

Cn1c(C(=O)Nc2ccc(C#N)cc2C(=O)O)cc2cccc(C(OOSc3cnc(Cl)c(Br)c3)S(=O)(=O)c3cnc(Cl)c(Br)c3)c21 (stereo not shown)
MIC: 0.03 µg/mL (≈ 0.0356 µM)

N#Cc1ccc(NC(=O)c2cncc(-c3ccccc3C(F)(F)F)c2)c(C(=O)O)c1
MIC: 2 µg/mL (≈ 4.86 µM)

O=C(Nc1ccc(Br)cc1C(=O)O)c1cncc(SCc2ccccc2)n1
MIC: 16 µg/mL (≈ 36 µM)

N#Cc1ccc(NC(=O)c2cnc(-c3ccccc3F)cn2)c(C(=O)O)c1
MIC: 4 µg/mL (≈ 11 µM)

N#Cc1ccc(NC(=O)c2cncc(-c3cnccn3)c2)c(C(=O)O)c1
MIC: 16 µg/mL (≈ 46.3 µM)

N#Cc1ccc(NC(=O)c2noc3cc(NS(=O)(=O)Cc4ccccc4)ccc23)c(C(=O)O)c1
MIC: 1 µg/mL (≈ 2.1 µM)

CC(C)[Si](c1cc(C(=O)Nc2ccc(C#N)cc2C(=O)O)no1)(C(C)C)C(C)C
MIC: 0.5 µg/mL (≈ 1.21 µM)

COCCOCCCSc1ccc(C(=O)Nc2ccc(Cl)cc2C(=O)O)cn1
MIC: 4 µg/mL (≈ 9.41 µM)

N#Cc1ccc(NC(=O)c2cnc(-c3ccccc3)cn2)c(C(=O)O)c1
MIC: 64 µg/mL (≈ 186 µM)

O=C(O)c1cc(Br)ccc1NC(=O)c1noc2ccccc12
MIC: 0.25 µg/mL (≈ 0.692 µM)

N#Cc1ccc(NC(=O)COc2ccccc2-c2cc(C(=O)Nc3ccc(C#N)cc3C(=O)O)no2)c(C(=O)O)c1
MIC: 128 µg/mL (≈ 232 µM)

Cc1c(C(=O)Nc2ccc(C#N)cc2C(=O)O)noc1-c1ccccc1
MIC: 0.25 µg/mL (≈ 0.72 µM)

O=C(Nc1ccc(Br)cc1C(=O)O)c1cc2cccc(S(=O)(=O)c3ccccc3)c2[nH]1
MIC: 0.125 µg/mL (≈ 0.25 µM)

N#Cc1ccc(NC(=O)c2cnc(Cl)cn2)c(C(=O)O)c1
MIC: 32 µg/mL (≈ 106 µM)

COCC(C)Oc1cccc2cc(C(=O)Nc3ccc(C#N)cc3C(=O)O)n(C)c12 (stereo not shown)
MIC: 0.125 µg/mL (≈ 0.307 µM)

N#Cc1ccc(NC(=O)c2cc3cccc(NC(=O)c4cccs4)c3[nH]2)c(C(=O)O)c1
MIC: 0.25 µg/mL (≈ 0.581 µM)

CC1(C)OCC(/C=C/c2cnc(C(=O)Nc3ccc(Br)cc3C(=O)O)cn2)O1 (stereo not shown)
MIC: 32 µg/mL (≈ 71.4 µM)

CCCCCSc1cnc(C(=O)Nc2ccc(Cl)cc2C(=O)O)cn1
MIC: 0.125 µg/mL (≈ 0.329 µM)

N#Cc1ccc(NC(=O)c2noc3cc(-c4ccccc4C(F)(F)F)ccc23)c(C(=O)O)c1
MIC: 0.125 µg/mL (≈ 0.277 µM)

N#Cc1ccc(NC(=O)c2cc3cccc(NC(=O)Cc4ccc5c(c4)OCO5)c3[nH]2)c(C(=O)O)c1
MIC: 0.5 µg/mL (≈ 1.04 µM)

Cc1sc(C(=O)Nc2ccc(C#N)cc2C(=O)O)cc1S(=O)(=O)N(C)C1CCCCC1
MIC: 8 µg/mL (≈ 17.3 µM)

CCCCCSc1nnc(C(=O)Nc2ccc(Br)cc2C(=O)O)o1
MIC: 0.25 µg/mL (≈ 0.603 µM)

COc1cnc(C(=O)Nc2ccc(C#N)cc2C(=O)O)cn1
MIC: 8 µg/mL (≈ 26.8 µM)

N#Cc1ccc(NC(=O)c2cc3cccc4c3n2CC/C4=N\O)c(C(=O)O)c1
MIC: 0.25 µg/mL (≈ 0.668 µM)

N#Cc1ccc(NC(=O)c2ccc(SCc3ccncc3)nn2)c(C(=O)O)c1
MIC: 0.25 µg/mL (≈ 0.639 µM)

Cn1c(C(=O)Nc2ccc(C#N)cc2C(=O)O)cc2cccc(NC(=O)Cc3ccncc3)c21.O=C(O)C(F)(F)F
MIC: 1 µg/mL

CCCCN1C(=O)c2ccc(C(=O)Nc3ccc(C#N)cc3C(=O)O)cc2C1=O
MIC: 4 µg/mL (≈ 10.2 µM)

N#Cc1ccc(NC(=O)c2cc(-c3ccccc3OC3CCC3)on2)c(C(=O)O)c1
MIC: 0.125 µg/mL (≈ 0.31 µM)

O=C(Nc1ccc(Br)cc1C(=O)O)c1ccc(-c2cccc(C(F)(F)F)c2)o1
MIC: 16 µg/mL (≈ 35.2 µM)

Cn1c(C(=O)Nc2ccc(Cl)cc2C(=O)O)cc2ccccc21
MIC: 4 µg/mL (≈ 12.2 µM)

N#Cc1ccc(NC(=O)c2ccc(SCc3ncon3)nc2)c(C(=O)O)c1
MIC: 1 µg/mL (≈ 2.62 µM)

CCCN(CCC)S(=O)(=O)c1ccc(C(=O)Nc2ccc(Br)cc2C(=O)O)cn1
MIC: 8 µg/mL (≈ 16.5 µM)

N#Cc1ccc(NC(=O)c2cc3cccc(Cl)c3[nH]2)c(C(=O)O)c1
MIC: 1 µg/mL (≈ 2.94 µM)

N#Cc1ccc(NC(=O)c2cc3cccc(NC(=O)Cc4ccc(F)cc4)c3[nH]2)c(C(=O)O)c1
MIC: 0.25 µg/mL (≈ 0.548 µM)

Cc1c(S(=O)(=O)Nc2ccc3c(c2)OCCO3)csc1C(=O)Nc1ccc(Br)cc1C(=O)O
MIC: 16 µg/mL (≈ 28.9 µM)

O=C(Nc1ccc(Br)cc1C(=O)O)c1ncc(-c2ccc(F)cc2)o1
MIC: 2 µg/mL (≈ 4.94 µM)

CS(=O)(=O)Nc1ccc2onc(C(=O)Nc3ccc(C#N)cc3C(=O)O)c2c1
MIC: 0.5 µg/mL (≈ 1.25 µM)

N#Cc1ccc(NC(=O)c2cncc(C#CCO)c2)c(C(=O)O)c1
MIC: 64 µg/mL (≈ 199 µM)

N#Cc1ccc(NC(=O)c2cnccn2)c(C(=O)O)c1
MIC: 128 µg/mL (≈ 477 µM)

Source: US20040110802A1, “Antibacterial benzoic acid derivatives” (priority 2002, published 2004)
